Experimental data published in the supplement of paper PMC11821682.

Assays:
[1] = test system: Danio rerio embryo; assay: BMC10 any morphological effect or mortality at 120 hpf; higher = less toxic
[2] = test system: HL-60; assay: Cell Health Index (toxicity pseudo-probability over dose series) (index 0-1); higher = more cytotoxic / cell stress;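 further: HL-60 cells exposed 4 h at 37 °C to ten threefold dilutions spanning 5 nM to 100 µM, multiparametric flow cytometry features scored by machine-learning classification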

Row | Structure (SMILES) | BMC10 any morphological effect or mortality [1] | Cell Health Index [2]
1 | COc1cccc(N2CCN(C3=Nc4c(F)cccc4[C@H](CC(=O)O)N3c3cc(C(F)(F)F)ccc3OC)CC2)c1 [Letermovir] | > 100 µM | 0.303
2 | Cl.NCCc1ccc(S(=O)(=O)F)cc1 [AEBSF] | > 100 µM | 0.32
3 | COC(=O)CC[C@H](NC(=O)[C@H](C)NC(=O)OCc1ccccc1)C(=O)N[C@H](C(=O)N[C@@H](CC(=O)OC)C(=O)CF)C(C)C [Z-AEVD-FMK] | > 100 µM | 0.179
4 | [Cl-].c1c2c(cc3c1OCO3)-c1cc3ccc4c(c3c[n+]1CC2)OCO4 [Coptisine] | > 100 µM | 0.777
5 | C[C@@]1(O)[C@H](O)[C@@H](CO)O[C@H]1n1cnc2c(N)ncnc21 [2'-C-Methyladenosine] | > 100 µM | 0.266
6 | CC(C)C1=C2[C@H]3CC[C@@H]4[C@@]5(C)CC[C@H](OC(=O)CC(C)(C)C(=O)O)C(C)(C)[C@@H]5CC[C@@]4(C)[C@]3(C)CC[C@@]2([C@@H](O)CN(CCN(C)C)Cc2ccc(Cl)cc2)CC1=O | > 100 µM | 0.422
7 | Nc1ncnc2c1ncn2[C@@H]1O[C@H](CO)[C@@H](O)[C@@H]1O [Vidarabine] | > 100 µM | 0.234
8 | O=C(/C=C/c1ccc(O)c(O)c1)O[C@@H]1[C@H](O)C[C@@](O)(C(=O)O)C[C@H]1OC(=O)/C=C/c1ccc(O)c(O)c1 [3,4-Dicaffeoylquinic acid] | > 100 µM | 0.416
9 | O=C(O)CCCCCCCCCCCCCCCCCCCO [20-hydroxy Arachidic acid] | > 100 µM | 0.215
10 | N[C@H]1CONC1=O [L-Cycloserine] | > 100 µM | 0.19
11 | C[n+]1cccc(C(=O)O)c1.[Cl-] [Trigonelline] | > 100 µM | 0.15
12 | C=C1CC[C@@H]2[C@](C)(CO[C@@H]3O[C@H](CO)[C@@H](O)[C@H](O)[C@H]3O)CCC[C@@]2(C)[C@@H]1CCC1=CCOC1=O [Neoandrographolide] | > 100 µM | 0.21
13 | O=C(CCCCCCC(=O)Nc1ccccc1)NO [SAHA] | > 100 µM | 0.239
14 | O=C1C=CC[C@@H]2[C@H]3CCCN4CCC[C@@H](CN12)[C@@H]34 [Sophocarpine] | > 100 µM | 0.164
15 | N=C(N)NCCC[C@H](NC(=O)c1ccc2ccccc2c1O)C(=O)N1CCC[C@H]1C(N)=O.O=C(O)C(F)(F)F [APC 366] | > 100 µM | 0.223
16 | CC(C)OC(=O)[C@H](C)N[P@](=O)(CO[C@H](C)Cn1cnc2c(N)ncnc21)Oc1ccccc1 [GS-7340] | > 100 µM | 0.202
17 | C[C@H]1CC[C@@]2(O)C(C)(C)[C@@H]3CC[C@@]2(C)[C@H]1C3 [Patchouli alcohol] | > 100 µM | 0.202
18 | COc1cc2c(cc1Cc1cccc(Cl)c1F)c(=O)c(C(=O)O)cn2[C@H](CO)C(C)C [Elvitegravir] | > 100 µM | 0.339
19 | C[C@@H]1O[C@@H](OC[C@H]2O[C@@H](Oc3c(-c4ccc(O)c(O)c4)oc4cc(O)cc(O)c4c3=O)[C@H](O)[C@@H](O)[C@@H]2O)[C@H](O)[C@H](O)[C@H]1O.O.O.O [Rutin] | > 100 µM | 0.252
20 | NC(=O)NO [Hydroxyurea] | > 100 µM | 0.161
21 | O=C(NCc1c(F)cc(F)cc1F)c1cn2c(c(O)c1=O)C(=O)N1[C@H]3CC[C@H](C3)O[C@@H]1C2 [Bictegravir] | > 100 µM | 0.35
22 | O=C(O[C@@H]1Cc2c(O)cc(O)cc2O[C@@H]1c1cc(O)c(O)c(O)c1)c1cc(O)c(O)c(O)c1 [(-)-Epigallocatechin gallate] | > 100 µM | 0.854

Row | Structure (SMILES) | BMC10 any morphological effect or mortality [1] | Cell Health Index [2]
23 | O=C(O[C@@H]1Cc2c(O)cc(O)cc2O[C@@H]1c1ccc(O)c(O)c1)c1cc(O)c(O)c(O)c1 [(-)-Epicatechin gallate] | > 100 µM | 0.807
24 | Cc1cc(C)c(Nc2ccnc(Nc3ccc(C#N)cc3)n2)c(C)c1 [Dapivirine] | > 100 µM | 0.836
25 | CC(C)(C)NC(=O)[C@@H]1C[C@@H]2CCCC[C@@H]2CN1C[C@@H](O)[C@H](Cc1ccccc1)NC(=O)[C@H](CC(N)=O)NC(=O)c1ccc2ccccc2n1.CS(=O)(=O)O [Saquinavir] | > 100 µM | 0.87
26 | CC(C)CC(=O)N[C@H](C(=O)N[C@H](C(=O)N[C@@H](CC(C)C)[C@@H](O)CC(=O)N[C@@H](C)C(=O)N[C@@H](CC(C)C)[C@@H](O)CC(=O)O)C(C)C)C(C)C [Pepstatin A] | > 100 µM | 0.154
27 | CCCCc1nc(Cl)c(C(=O)O)n1Cc1ccc(-c2ccccc2-c2nnn[nH]2)cc1 [Losartan carboxylic acid] | > 100 µM | 0.221
28 | O=C(O)Cn1nnc(-c2cc(N3CCC(Oc4cc(F)ccc4Br)CC3)no2)n1 [MK-8245] | > 100 µM | 0.226
29 | Nc1ccn([C@@H]2O[C@H](CO)[C@@H](O)[C@@H]2O)c(=O)n1 [Cytarabine] | > 100 µM | 0.203
30 | Nc1nc(=O)n([C@@H]2CS[C@H](CO)O2)cc1F [Emtricitabine] | > 100 µM | 0.158
31 | CC(C)C[C@H](NC(=O)[C@H](CCc1ccccc1)NC(=O)CN1CCOCC1)C(=O)N[C@@H](Cc1ccccc1)C(=O)N[C@@H](CC(C)C)C(=O)[C@@]1(C)CO1 [Carfilzomib] | > 100 µM | 0.42
32 | COc1cc(OC)c2c(=O)nc(-c3cc(C)c(OCCO)c(C)c3)[nH]c2c1 [Apabetalone] | > 100 µM | 0.344
33 | COC[C@H]1C[C@@H](c2ncc(-c3ccc4c(c3)COc3cc5c(ccc6nc([C@@H]7CC[C@H](C)N7C(=O)[C@@H](NC(=O)OC)C(C)C)[nH]c65)cc3-4)[nH]2)N(C(=O)[C@H](NC(=O)OC)c2ccccc2)C1 [Velpatasvir] | > 100 µM | 0.286
34 | O=C(O)/C(S)=C/c1ccc(I)cc1 | > 100 µM | 0.32
35 | NC(=O)c1nc(F)c[nH]c1=O [Favipiravir] | > 100 µM | 0.248
36 | O=c1[nH]c(=O)n([C@H]2C[C@H](O)[C@@H](CO)O2)cc1CO [5-Hydroxymethyl-2'-deoxyuridine] | > 100 µM | 0.178
37 | CCC(CC)[C@H](NC(C)=O)[C@@H]1[C@H](O)[C@@H](C(=O)O)C[C@H]1NC(=N)N [Peramivir] | > 100 µM | 0.202
38 | CC(C)=CCC[C@](C)(O[C@@H]1O[C@H](CO[C@@H]2O[C@H](CO)[C@@H](O)[C@H](O)[C@H]2O)[C@@H](O)[C@H](O)[C@H]1O)[C@H]1CC[C@]2(C)[C@@H]1[C@H](O)C[C@@H]1[C@@]3(C)CC[C@H](O[C@@H]4O[C@H](CO)[C@@H](O)[C@H](O)[C@H]4O[C@@H]4O[C@H](CO)[C@@H](O)[C@H](O)[C@H]4O)C(C)(C)[C@@H]3CC[C@]12C [Ginsenoside Rb1] | > 100 µM | 0.145
39 | Nc1nc(=O)c2ncn(COC(CO)CO)c2[nH]1 [Ganciclovir] | > 100 µM | 0.179
40 | CC1(C)[C@@H](O[C@H]2O[C@H](C(=O)O)[C@@H](O)[C@H](O)[C@H]2O[C@@H]2O[C@H](C(=O)O)[C@@H](O)[C@H](O)[C@H]2O)CC[C@]2(C)[C@H]3C(=O)C=C4[C@@H]5C[C@@](C)(C(=O)O)CC[C@]5(C)CC[C@@]4(C)[C@]3(C)CC[C@@H]12.N [Glycyrrhizin] | > 100 µM | 0.295
41 | Nc1nc(=O)c2c(CCc3ccc(C(=O)N[C@@H](CCC(=O)[O-])C(=O)[O-])cc3)c[nH]c2[nH]1.O.O.O.O.O.O.O.[Na+].[Na+] [Pemetrexed] | > 100 µM | 0.15
42 | CC(=O)Nc1nc(C)c(-c2ccc(Cl)c(S(=O)(=O)NCCO)c2)s1 [PIK-93] | > 100 µM | 0.267
43 | Nc1ccc(-c2nc3ccc(-c4nc5cc(N)ccc5[nH]4)cc3[nH]2)cc1 [Ro 90-7501] | > 100 µM | 0.512
